# In patent US5140025A, “Thienotricylene for the treatment of bronchial diseases” (BYK Gulden Lomberg Chemische Fabrik GmbH, priority 1987, dated 1992):
# Like-named read-outs stand apart in the source and are kept apart here.
# Assays:
# [1] = tested on: acetylcholine-induced changes in lung function parameters; experiment: Acetylcholine-induced changes in lung function parameters in anaesthetised guinea pigs, intratracheal administration (whole-body plethysmography); assay type: in vivo, guinea pig (Pirbright White); conditions: for Bronchospasmolytic activity, percentage increase of compliance vs control / Bronchospasmolytic activity, percentage increase of conductance vs control: x±SEM, N=10; for ED50: Cavia porcellus
# Excerpt: Effect of Intratracheally (i.t.) Administered (±)-Telenzepine on Acetylcholine-Induced Changes in Lung Function Parameters in Anaesthetised Guinea Pigs
# Small-anmimal whole-body plethysmography in anaesthetised guinea pigs (method according to U. Heinreich and A. Wilhelm, in bga-Schriften 5/84, pp 255-266, MMW-Verlag, 1984).
# Pirbright White, Interfauna (Tuttlingen). 290-350 g, male.
# Ethylurethane 1.2 g/kg i.p. as 12.5% aqueous solution.
# Plethysmographic measurement of maximum flow velocities of the respiratory air and tidal volume using tracheal catheter inserted through the natural passages; and measurement of intrapleural pressure using oesophageal catheter inserted through the natural passages.
# 0.001, 0.01, 0.1 and 1 μmol/kg (±)-telenzepine i.t., dissolved in 0.1 ml/kg 0.9% NaCl+0.1% Tween 80, acetylcholine as spasmogen administered by inhalation of ultrasonically nebulized 0.18% acetylcholine/0.9% NaCl solution.
# -10 min control spasm, 0 min administration of substance, +5 and +30 min test spasms.
# Computation of conductance (=capacity of airways to conduct air, equivalent to reciprocal of airway resistance) and of compliance (=distensibility of lung) from the recorded data, according to the method of Amdur and Mead (Amer. J. Physiol., 192, 364-368, 1958), before and at peak spasm, and determination of differences; calculation of percentage inhibition of the spasm after administration of the substance, in comparison with the control spasm; calculation of the dose/response curve and ED50 values of this bronchospasmolytic activity.
# [2] = tested on: acetylcholine-induced asthma attacks; experiment: Acetylcholine-induced asthma attacks in the conscious guinea pig, oral administration; assay type: in vivo, guinea pig (Pirbright White); conditions: 30 min after administration; for Number of animals, latency period tripled (= protected): 10 animals used
# Excerpt: Effect of orally administered (±)-telenzepine on acetylcholine-induced asthma attacks in the conscious guinea pig
# As described by R. Beume, U. Kilian, N. Kolassa, K. Mussler, Atemw.-Lungenkrkh., 11, 342-345, 1985 ("The testing of bronchospasmolytic substances in conscious guinea pigs").
# Pirbright White, Interfauna (Tuttlingen), 250-450 g, male, 10 animals per dose and experiment.
# Thoracographic measurement of the respiratory activity, measurement of the latency period from the beginning of acetylcholine nebulisation to the beginning of the asthma attack; determination of the number of animals for which, 30 minutes after administration, the latency period of the experimental attack has been at least tripled in relation to the control attack; estimation of the approximate ED50 from this.
# 0.1, 0.3, 1, 3, 10 and 30 μmol/kg (±)-telenzepine p.o. (in 4% Methocel, administered in 0.9% NaCl); acetylcholine 0.09% in 0.9% NaCl by inhalatin (ultrasonic nebulisation).
# The number of animals for which there is at least a tripling of the latency period of the acetylcholine-induced experimental attack in comparison with the control attack as a function of the perorally administered (±)-telenzepine dose is expressed as follows: […]
# [3] = tested on: modified Shay rat (lesion formation and acid secretion); experiment: Antiulcerogenic and secretion-inhibiting action on the modified Shay rat; assay type: in vivo; conditions: Rattus norvegicus, iv, 4 h, modified Shay rat, i.v., interpolated dose, 4 h, N=24
# Excerpt: The excellent gastric protective action and the gastric secretion-inhibiting action of the compound (+)-4,9-dihydro-3-methyl-4-[(4-methyl-1-piperazinyl)-acetyl]-10H-thieno[3,4-b][1,5]benzodiazepin-10-one (=compound 1 in Table 8 below) in comparison with the corresponding (-)-enantiomer (=compound 3) and with the racemate (=compound 2) can be detected in studies on the modified Shay rat. The effect of the stated compounds after intravenous (i.v.) administration on the formation of lesions and the acid secretion in the modified Shay rat is shown in Table 8 below.
# Ulcers are provoked in rats (female, 180-200 g, 4 animals per cage on high grids) which have fasted for 24 hours, by pylorus ligature (under diethyl ether anaesthesia) and oral administration of 100 mg/10 ml/kg of acetylsalicylic acid. The substances to be tested are administered intravenously (1 ml/kg) directly after the pylorus ligature. The wound is closed by means of Michel clamps. 4 hours afterwards, the animals are sacrificed under anaesthesia with ether by Atlas dislocation, and resection of the stomach.
# The stomach is opened along the greater curvature and clamped to a cork sheet, the amount of secreted gastric juice (volume) is determined first and its HCl content (titration with sodium hydroxide solution) being determined subsequently. The number and size (=diameter) of ulcers present are determined using a stereomicroscope, under 10×magnification. The product of severity (according to the following point scale) and number of ulcers serves as an individual lesion index.
# The reduction in the means lesion index of each treated group compared with the control group (=100%) serves as a measure of the antiulcerogenic effect. The ED50 is the dose which reduces the mean lesion index or the HCl secretion by 50% compared with the control.
compound,measurement,setting,value
"Cc1scc2c1N(C(=O)CN1CCN(C)CC1)c1ccccc1NC2=O (racemic) [(±)-telenzepine, 4,9-dihydro-3-methyl-4-[(4-methyl-1-piperazinyl)-acetyl]-10H-thieno[3,4-b][1,5]benzodiazepin-10-one]","Bronchospasmolytic activity, percentage increase of compliance vs control","[1]; 5 min, 0.001 μmol/kg i.t.",5 ± 1%
same,"Bronchospasmolytic activity, percentage increase of conductance vs control","[1]; 5 min, 0.001 μmol/kg i.t.",12 ± 3%
same,"Bronchospasmolytic activity, percentage increase of compliance vs control","[1]; 5 min, 0.01 μmol/kg i.t.",50 ± 9%
same,"Bronchospasmolytic activity, percentage increase of conductance vs control","[1]; 5 min, 0.01 μmol/kg i.t.",62 ± 10%
same,"Bronchospasmolytic activity, percentage increase of compliance vs control","[1]; 5 min, 0.1 μmol/kg i.t.",34 ± 10%
same,"Bronchospasmolytic activity, percentage increase of conductance vs control","[1]; 5 min, 0.1 μmol/kg i.t.",46 ± 10%
same,"Bronchospasmolytic activity, percentage increase of compliance vs control","[1]; 5 min, 1 μmol/kg i.t.",57 ± 9%
same,"Bronchospasmolytic activity, percentage increase of conductance vs control","[1]; 5 min, 1 μmol/kg i.t.",65 ± 9%
same,"Bronchospasmolytic activity, percentage increase of compliance vs control","[1]; 30 min, 0.001 μmol/kg i.t.",13 ± 3%
same,"Bronchospasmolytic activity, percentage increase of conductance vs control","[1]; 30 min, 0.001 μmol/kg i.t.",20 ± 5%
same,"Bronchospasmolytic activity, percentage increase of compliance vs control","[1]; 30 min, 0.01 μmol/kg i.t.",49 ± 9%
same,"Bronchospasmolytic activity, percentage increase of conductance vs control","[1]; 30 min, 0.01 μmol/kg i.t.",51 ± 9%
same,"Bronchospasmolytic activity, percentage increase of compliance vs control","[1]; 30 min, 0.1 μmol/kg i.t.",51 ± 9%
same,"Bronchospasmolytic activity, percentage increase of conductance vs control","[1]; 30 min, 0.1 μmol/kg i.t.",54 ± 7%
same,"Bronchospasmolytic activity, percentage increase of compliance vs control","[1]; 30 min, 1 μmol/kg i.t.",89 ± 4%
same,"Bronchospasmolytic activity, percentage increase of conductance vs control","[1]; 30 min, 1 μmol/kg i.t.",84 ± 2%
same,ED50,"[1]; 5 min, 5 min p.a., read-out: ED50 of bronchospasmolytic activity, compliance",0.3 µmol/kg
same,ED50,"[1]; 5 min, 5 min p.a., read-out: ED50 of bronchospasmolytic activity, conductance",0.05 µmol/kg
same,ED50,"[1]; 0.5 h, 30 min p.a., read-out: ED50 of bronchospasmolytic activity, compliance",0.03 µmol/kg
same,ED50,"[1]; 0.5 h, 30 min p.a., read-out: ED50 of bronchospasmolytic activity, conductance",0.03 µmol/kg
same,dose range of time- and dose-dependent inhibition of acetylcholine-induced reduction of conductance and compliance,[1]; i.t.,0.001-1 μmol/kg i.t.
same,efficacy at 30 min compared with 5 min after administration,[1]; i.t.,more pronounced at 30 min than at 5 min
same,"Number of animals, latency period tripled (= protected)",[2]; 0.1 μmol/kg p.o.,3 number of animals
same,"Number of animals, latency period tripled (= protected)",[2]; 0.3 μmol/kg p.o.,5 number of animals
same,"Number of animals, latency period tripled (= protected)",[2]; 1 μmol/kg p.o.,6 number of animals
same,"Number of animals, latency period tripled (= protected)",[2]; 3 μmol/kg p.o.,7 number of animals
same,"Number of animals, latency period tripled (= protected)",[2]; 10 μmol/kg p.o.,9 number of animals
same,"Number of animals, latency period tripled (= protected)",[2]; 30 μmol/kg p.o.,10 number of animals
same,ED50,"[2]; Cavia porcellus, po, 0.5 h, 95% Int. in brackets, read-out: approximate ED50 (at least tripling of latency period)",~0.7 µmol/kg
same,ED50,"[3]; read-out: Gastric protective action, reduction of lesion index, about ED50",~0.042 mg/kg
same,ED50,"[3]; read-out: Inhibition of acid secretion, reduction of HCl secretion, about ED50",~0.18 mg/kg
